Experimental data reported in patent publication US12629358B2, “Compound used as RET kinase inhibitor and application thereof” (TYK MEDICINES, INC., priority 2019, dated 2026).
Substitutions are numbered along the chain they refer to. Like-named read-outs stand apart in the source and are kept apart here.

How the values were obtained:
wild-type RET kinase = wild-type RET kinase (Homo sapiens, UniProt P07949); test: Enzyme activity test against wild-type RET kinase (33P-ATP filter-binding kinase activity assay); format: biochemical; conditions: ATP Km concentration, 10 concentrations
Sequence of wild-type RET kinase (P07949 29-1114): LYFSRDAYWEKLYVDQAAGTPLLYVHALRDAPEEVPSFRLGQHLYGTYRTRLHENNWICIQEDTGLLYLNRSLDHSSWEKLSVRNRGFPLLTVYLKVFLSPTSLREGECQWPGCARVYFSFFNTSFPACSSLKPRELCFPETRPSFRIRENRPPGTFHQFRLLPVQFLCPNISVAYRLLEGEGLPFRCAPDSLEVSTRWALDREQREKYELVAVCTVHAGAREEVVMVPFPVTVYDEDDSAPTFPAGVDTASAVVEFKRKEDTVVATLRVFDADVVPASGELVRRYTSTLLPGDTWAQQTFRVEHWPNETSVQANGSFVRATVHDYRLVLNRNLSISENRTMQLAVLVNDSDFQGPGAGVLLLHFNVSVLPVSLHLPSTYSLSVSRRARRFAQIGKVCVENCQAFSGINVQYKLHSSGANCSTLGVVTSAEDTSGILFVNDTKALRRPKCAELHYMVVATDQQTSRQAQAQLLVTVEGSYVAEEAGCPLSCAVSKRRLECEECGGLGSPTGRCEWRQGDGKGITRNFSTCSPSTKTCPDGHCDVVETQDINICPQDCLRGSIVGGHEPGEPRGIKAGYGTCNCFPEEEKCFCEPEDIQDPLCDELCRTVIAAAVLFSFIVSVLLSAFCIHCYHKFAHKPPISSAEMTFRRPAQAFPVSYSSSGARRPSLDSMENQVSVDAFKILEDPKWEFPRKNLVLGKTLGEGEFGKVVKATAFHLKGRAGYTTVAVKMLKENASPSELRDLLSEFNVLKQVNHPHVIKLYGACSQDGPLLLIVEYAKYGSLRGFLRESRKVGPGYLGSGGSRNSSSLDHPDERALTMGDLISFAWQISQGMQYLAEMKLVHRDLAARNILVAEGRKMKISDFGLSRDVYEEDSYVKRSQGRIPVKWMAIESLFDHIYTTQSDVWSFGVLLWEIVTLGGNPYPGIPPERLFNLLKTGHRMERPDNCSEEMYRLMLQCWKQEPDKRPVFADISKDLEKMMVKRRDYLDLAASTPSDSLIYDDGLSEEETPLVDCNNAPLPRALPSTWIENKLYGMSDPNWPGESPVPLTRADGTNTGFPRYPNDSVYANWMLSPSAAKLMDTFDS
Experimental: A biological activity test experiment was conducted below for some compounds of the above Examples and Comparative Example.
[…]. The biological activity screening of the compounds will be determined repeatedly at 10 concentrations.
Each sample was prepared into a solution with a concentration of 10 mM.
The test compound was dissolved in 100% dimethyl sulfoxide to a specific concentration. Integra Viaflo Assist was used to assist DMSO for (continuous) dilution.
Kinase was added to the newly prepared basic reaction buffer
Adding any desired cofactors to the substrate solution.
Adding wild-type RET kinase into the substrate solution and gently mixing;
Acoustic technology (Echo 550; Nanoliter range) was used to feed the compounds in 100% of dimethyl sulfoxide into the kinase reaction mixture and incubated at room temperature for 20 minutes.
33P-ATP (specific activity 10 Ci/l) was added to the reaction mixture to start the reaction.
Incubated at room temperature for 2 hours
Radioactivity was detected by filter-binding method.
Kinase activity data was expressed as the percentage of remaining kinase activity in the test sample compared to the vehicle (dimethyl sulfoxide) reaction. Prism (GRAPHPAD software) was used to obtain IC50 value and curve-fitting.

[1] = biological target: T1, Ba/F3-KIF5B-RET-V804L cells (Homo sapiens, UniProt P07949, V804L); test: Cell anti-proliferation experiment (CellTiter-Glo), Ba/F3-KIF5B-RET-V804L; format: cell-based; conditions: cell viability, 72 h
T1 construct: host or cells: Ba/F3 (BaF3 from RIKEN BRC CELL BANK); the other entry of the earlier key: KIF5B (P33176, Kinesin-1 heavy chain)
T1 sequence (P07949 713-1063 V804L limits assumed): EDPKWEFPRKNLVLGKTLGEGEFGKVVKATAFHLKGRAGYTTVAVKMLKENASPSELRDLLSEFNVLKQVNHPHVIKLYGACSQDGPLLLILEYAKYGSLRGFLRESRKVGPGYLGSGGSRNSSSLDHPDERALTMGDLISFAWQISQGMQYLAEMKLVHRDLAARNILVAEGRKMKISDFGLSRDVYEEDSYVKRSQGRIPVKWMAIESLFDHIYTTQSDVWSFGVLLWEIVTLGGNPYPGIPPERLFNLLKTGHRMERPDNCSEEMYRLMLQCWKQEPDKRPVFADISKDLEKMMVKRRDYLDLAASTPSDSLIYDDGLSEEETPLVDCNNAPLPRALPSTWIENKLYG
Experimental: (§1) Ba/F3-KIF5B-RET, Ba/F3-KIF5B-RET-V804L and Ba/F3-KIF5B-RET-V804M cells were constructed by PreceDo Pharmaceuticals Co., Ltd.
(§2) Ba/F3-KIF5B-RET, Ba/F3-KIF5B-RET-V804L and Ba/F3-KIF5B-RET-V804M medium: RPMI-1640+10% FBS+1% P/S.
(§3) A 1000× solution of the compound was prepared with DMSO, the compound was diluted to 20 times final concentration with a growth medium, and […] was added.
(§4) The suspended cells were rotated downward, resuscitated in the growth medium, and then counted with a cell counter. The cell suspension was diluted to the desired concentration in the growth medium. 95p L cell suspension was fed to a 96-well plate. 5 μL of 20× compound was added to the […], and the final DMSO concentration per well was 0.1%; incubated at 37° C. with 5% CO2 for 72 h
(§5) The plate was equilibrated to room temperature before measurement, 50 μl of CellTiter-Glo® reagent was added into each well, mixed on a shaker for 2 minutes, incubated at room temperature for 10 minutes, and recorded with Paradigm.
(§6) Cell viability was analyzed using Graphpad 7.0 software according to the formula Cell viability (CV %)=(RLU compound−RLU blank)/(RLU control−RLU blank)*100%, and the corresponding IC50 data were calculated as shown in Table 2

[2] = Metabolism test of drugs: plasma pharmacokinetics after intravenous and intragastric administration; format: in vivo; conditions: SD rats; for CL_obs / AUC(0-inf) / AUC(0-t) / half-life / MRT / Vd / Cmax / Tmax: plasma; for F: PO 10 mg/kg vs IV 2 mg/kg; for AUC(0-inf) / AUC(0-t) / half-life / MRT / Vd / Cmax / Tmax: male, rat; for MRT: read-out: MRTINF_ obs; for Vd: read-out: Vss
Experimental: Four small molecule compounds of BLU-667, compound C2, compound C4 and compound C8 were administered to SD rats by intravenous and intragastric administration respectively. Blood samples were collected at different time points to determine the concentration of drugs in plasma after administration and calculate the related pharmacokinetics parameters.
The vehicle of BLU-667, C2, C4 and C8 was 10% NMP+49% PEG400+1% Tween80+40% Water. The specific preparation method was as follows: proper amount of tested samples was weighed, dissolved in 10% NMP+49% PEG400+1% Tween80+40% Water, mixed well by vortex for later use.
LC-MS/MS was used by the analysis department of the experimental organization to detect and analyze the prepared solution of sample for test.
Healthy male SD rats were used in this research. Animal weight: 150-200 g. All animals fasted before administration, and resumed feeding 4 hours after administration.
Time points for blood collection were: • Intravenous administration (groups 1, 3 and 5): 0.0833, 0.25, 0.5, 1, 2, 4, 8, 12 and 24 hours after administration. (±2 min at time point ≤2 hr, ±15 min at other points.) • Oral administration: (groups 2, 4, 6 and 7): 0.25, 0.5, 1, 2, 4, 8, 12 and 24 hours after administration. (±2 m at time point […] at other points.)
About 0.1 mL of blood was collected from each animal through jugular vein every time, and EDTA or heparin sodium was used as anticoagulant. Blood samples were collected and placed on ice, and plasma was separated by centrifugation (centrifugation conditions: 5000 r/min, 6 min, 4° C.).
LC-MS/MS was used by the analysis department of the experimental organization to analyze the plasma samples of rats.
According to the data of blood drug concentration of the drug, the pharmacokinetic parameters AUC0→t, AUC0→∞, MRT0→∞, CMax, TMax, Vss, F, CL and T1/2 as well as their mean and standard deviation of the samples for test were calculated respectively by pharmacokinetic calculation software WinNonlin non-compartment model.
The main pharmacokinetic parameters of BLU-667, compound C2, compound C4 and compound C8 in plasma after intravenous and single oral administration of BLU-667, compound C2, compound C4 and compound C8 in SD rats were shown in Table 3

Ba/F3-KIF5B-RET cells = biological target: T2, Ba/F3-KIF5B-RET cells (Homo sapiens, UniProt P07949); test: Cell anti-proliferation experiment (CellTiter-Glo), Ba/F3-KIF5B-RET; format: cell-based; conditions: cell viability, 72 h
T2 construct: host or cells: Ba/F3 (BaF3 from RIKEN BRC CELL BANK); the other entry of the earlier key: KIF5B (P33176, Kinesin-1 heavy chain)
T2 sequence (P07949 713-1063 limits assumed): T1 sequence (P07949 713-1063 V804L limits assumed) with L92V
Experimental: as §1, §2, §3, §4, §5, §6

[3] = biological target: T3, Ba/F3-KIF5B-RET-V804M cells (Homo sapiens, UniProt P07949, V804M); test: Cell anti-proliferation experiment (CellTiter-Glo), Ba/F3-KIF5B-RET-V804M; format: cell-based; conditions: cell viability, 72 h
T3 construct: host or cells: Ba/F3 (BaF3 from RIKEN BRC CELL BANK); the other entry of the earlier key: KIF5B (P33176, Kinesin-1 heavy chain)
T3 sequence (P07949 713-1063 V804M limits assumed): T1 sequence (P07949 713-1063 V804L limits assumed) with L92M
Experimental: as §1, §2, §3, §4, §5, §6

[4] = tested on: tumor patients with RET fusion and mutation; conditions: Phase I, cited from earlier work
[5] = PO, versus control compound (BLU-667)

Row | Compound | IC50 (wild-type RET kinase) [nM] | IC50 [1] [nM] | CL_obs ([2]; IV, 2 mg/kg) [mL/min/kg] | F [2] [%] | AUC(0-inf) ([2]; IV, 2 mg/kg) [ng·h/mL] | AUC(0-t) ([2]; IV, 2 mg/kg) [ng·h/mL] | half-life ([2]; IV, 2 mg/kg) [h] | MRT ([2]; IV, 2 mg/kg) [h] | Vd ([2]; IV, 2 mg/kg) [L/kg] | AUC(0-inf) ([2]; PO, 10 mg/kg) [ng·h/mL] | AUC(0-t) ([2]; PO, 10 mg/kg) [ng·h/mL] | Cmax ([2]; PO, 10 mg/kg) [ng/mL] | Tmax ([2]; PO, 10 mg/kg) [h] | half-life ([2]; PO, 10 mg/kg) [h] | MRT ([2]; PO, 10 mg/kg) [h] | IC50 (Ba/F3-KIF5B-RET cells) [nM] | IC50 [3] [nM] | also measured
1 | CO[C@]1(C(=O)N[C@@H](C)c2ccc(-n3cc(F)cn3)nc2)CC[C@H](c2nc(Nc3cc(C)[nH]n3)ccc2C#N)CC1 [Compound C2] | 1.98 | 16.9 | 8.67 | 11.96 | 3900 | 3850 | 4.12 | 4.89 | 2.56 | 2320 | 2300 | 325 | 2 | 3.26 | 6.05 | 23.1 | 42.4 | 
2 | CO[C@]1(C(=O)N[C@@H](C)c2ccc(-n3cc(F)cn3)nc2)CC[C@H](c2nc(C)cc(Nc3cc(C)[nH]n3)n2)CC1 [BLU-667, reference compound] |  |  | 24.5 | 61.14 | 1410 | 1330 | 5.52 | 6.1 | 8.53 | 4110 | 4080 | 632 | 4 | 3.36 | 5.08 |  |  | ORR ([4]; patients with medullary thyroid carcinoma): 40%; ORR ([4]; patients with non-small cell lung cancer): 50%; overall remission rate (ORR) ([4]; tumor patients with RET fusion and mutation): 45%
3 | CO[C@]1(C(=O)N[C@@H](C)c2ccc(-n3cc(F)cn3)nc2)CC[C@H](c2nc(Nc3cc(C)[nH]n3)cc3cccnc32)CC1 [Compound C4] | 1.02 | 7.1 | 7.67 | 49.85 | 4430 | 4390 | 4.19 | 3.74 | 1.7 | 11000 | 10900 | 2460 | 2 | 3.18 | 4.3 | 9.1 | 17.3 | maximum blood drug concentration (Cmax) increased compared with the control compound [2, 5]: 3-4 times; plasma exposure amount AUC increased compared with the control compound [2, 5]: 2-3 times
